Where a name gives a salt, the structure may show the parent alone.
Each compound was assayed against T1, human β2 adrenergic receptor (Homo sapiens, UniProt P07550) (assay: β-Adrenergic receptor radioligand binding assay ([125I]-Iodocyanopindolol)). Details: cell membranes expressing human β2 adrenergic receptor.
T1 construct: purchased
Procedure: (§1) The inhibitory effects of compounds of the present invention at the M3 muscarinic receptor and (in the case of Example 77) the β2 adrenergic receptor, were determined by the following binding assays:
Radioligand binding studies utilising [^125I]-Iodocyanopindolol and commercially available cell membranes expressing the human β2 adrenergic receptor were used to assess the affinity of antagonists for β2-adrenergic receptor. Membranes and SPA-beads were incubated with [^125I-Iodocyanopindolol and β2 antagonist at various concentrations for 3 hours at room temperature in TRIS buffer. The assay was performed in 96-well plates which were read using the Wallac Microbeta counter.

T1 sequence (P07550 whole entry): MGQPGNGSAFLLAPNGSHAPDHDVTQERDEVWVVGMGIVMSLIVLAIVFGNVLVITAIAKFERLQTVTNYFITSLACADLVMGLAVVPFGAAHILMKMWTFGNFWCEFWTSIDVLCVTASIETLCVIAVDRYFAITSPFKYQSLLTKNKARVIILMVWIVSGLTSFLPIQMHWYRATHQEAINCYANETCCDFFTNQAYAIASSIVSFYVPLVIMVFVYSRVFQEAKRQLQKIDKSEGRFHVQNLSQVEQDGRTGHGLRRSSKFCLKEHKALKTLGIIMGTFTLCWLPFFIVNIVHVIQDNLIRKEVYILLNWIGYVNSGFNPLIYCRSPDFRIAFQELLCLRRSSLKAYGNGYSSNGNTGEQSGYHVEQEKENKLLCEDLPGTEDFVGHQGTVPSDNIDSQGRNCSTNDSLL

| Ki [nM] | SMILES |
| --- | --- |
| < 100 | CN(CCCCCCCCCNC[C@H](O)c1ccc(O)c2[nH]c(=O)ccc12)Cc1cnc(C(O)(c2ccccc2)C2CCCCC2)o1 (stereo partly drawn) [Example 77, 5-[(R)-2-(9-{[2-(Cyclohexyl-hydroxy-phenyl-methyl)-oxazol-5-ylmethyl]-methyl-amino}-nonylamino)-1-hydroxy-ethyl]-8-hydroxy-1H-quinolin-2-one] |

What follows are compounds tested against T2, M3 muscarinic receptor (Homo sapiens, UniProt P20309) (assay: Muscarinic receptor radioligand binding assay ([3H]-NMS), M3). Details: cell membranes expressing human M3 receptor.
T2 construct: purchased
T2 sequence (P20309 whole entry): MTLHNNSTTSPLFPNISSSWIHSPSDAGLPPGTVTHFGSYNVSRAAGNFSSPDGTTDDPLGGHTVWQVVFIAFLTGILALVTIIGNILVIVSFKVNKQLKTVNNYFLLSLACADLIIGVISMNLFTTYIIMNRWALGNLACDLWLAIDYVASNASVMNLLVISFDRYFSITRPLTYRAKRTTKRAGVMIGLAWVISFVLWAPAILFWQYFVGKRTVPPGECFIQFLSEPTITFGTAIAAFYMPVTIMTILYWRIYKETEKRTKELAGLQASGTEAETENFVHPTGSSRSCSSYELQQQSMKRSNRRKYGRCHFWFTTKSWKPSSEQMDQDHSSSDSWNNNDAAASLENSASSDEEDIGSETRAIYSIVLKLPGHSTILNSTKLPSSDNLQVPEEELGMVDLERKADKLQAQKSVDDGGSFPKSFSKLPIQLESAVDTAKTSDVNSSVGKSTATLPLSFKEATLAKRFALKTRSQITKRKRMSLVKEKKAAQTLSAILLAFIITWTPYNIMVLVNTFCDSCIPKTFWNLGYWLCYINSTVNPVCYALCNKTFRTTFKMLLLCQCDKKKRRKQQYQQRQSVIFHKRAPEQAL
Procedure: as §1
Radioligand binding studies utilising [^3H]-N-methyl scopolamine ([^3H]-NMS) and commercially available cell membranes expressing the human muscarinic receptors (M2 and M3) were used to assess the affinity of muscarinic antagonists for M2 and M3 receptors. Membranes in TRIS buffer were incubated in 96-well plates with [^3H]-NMS and M3 antagonist at various concentrations for 3 hours. Membranes and bound radioligand were then harvested by filtration and allowed to dry overnight. Scintillation fluid was then added and the bound radioligand counted using a Can berra Packard Topcount scintillation counter

| SMILES | Ki [nM] |
| --- | --- |
| CN(Cc1ccc(CC[N+](C)(C)Cc2cnc([C@](O)(c3ccccc3)C3CCCCC3)o2)cc1)C(=O)OC(C)(C)C [Example 50, (2-{4-[(Tert-butoxycarbonyl-methyl-amino)-methyl]-phenyl}-ethyl)-[2-((R)-cyclohexyl-hydroxy-phenyl-methyl)-oxazol-5-ylmethyl]-dimethyl-ammonium methanesulfonate] | > 10 |
| C[N+](C)(CCCOc1ccc(C(N)=O)cc1)Cc1cnc([C@](O)(c2ccccc2)C2CCCCC2)o1 [Example 51, [3-(4-Carbamoyl-phenoxy)-propyl]-[2-((R)-cyclohexyl-hydroxy-phenyl-methyl)-oxazol-5-ylmethyl]-dimethyl-ammonium bromide] | 1 to 10 |
| C[N+](C)(CC(=O)Nc1ccon1)Cc1cnc([C@](O)(c2ccccc2)C2CCCCC2)o1 [Example 52, [2-((R)-Cyclohexyl-hydroxy-phenyl-methyl)-oxazol-5-ylmethyl]-(isoxazol-3-ylcarbamoylmethyl)-dimethyl-ammonium bromide] | 1 to 10 |
| COC(=O)c1ccc(OCCC[N+](C)(C)Cc2cnc([C@](O)(c3ccccc3)C3CCCCC3)o2)cc1 [Example 53, [2-((R)-Cyclohexyl-hydroxy-phenyl-methyl)-oxazol-5-ylmethyl]-[3-(4-methoxycarbonyl-phenoxy)-propyl]-dimethyl-ammonium bromide] | 1 to 10 |
| C[N+](C)(CCCOc1ccc(S(N)(=O)=O)cc1)Cc1cnc([C@](O)(c2ccccc2)C2CCCCC2)o1 [Example 54, [2-((R)-Cyclohexyl-hydroxy-phenyl-methyl)-oxazol-5-ylmethyl]-dimethyl-[3-(4-sulfamoyl-phenoxy)-propyl]-ammonium bromide] | 1 to 10 |
| C[N+]1(Cc2cnc(C(O)(c3ccccc3)c3ccccc3)o2)CCC(Oc2ccccc2)CC1 (stereo not drawn) [Example 58, 1-[2-(Hydroxy-diphenyl-methyl)-oxazol-5-ylmethyl]-1-methyl-4-phenoxy-piperidinium bromide] | 1 to 10 |
| C[N+](C)(Cc1ccccc1)Cc1cnc([C@](O)(c2ccccc2)C2CCCC2)o1 [Example 59, Benzyl-[2-(cyclopentyl-hydroxy-phenyl-methyl)-oxazol-5-ylmethyl]-dimethyl-ammonium bromide] | 1 to 10 |
| CN(C)CCc1cnc(C(O)(c2ccccc2)c2ccccc2)o1 [Example 71, [5-(2-Dimethylamino-ethyl)-oxazol-2-yl]-diphenyl-methanol] | 1 to 10 |
| CN(C)Cc1cnc(C(c2ccccc2)c2ccccc2)o1 [Example 73, (2-Benzhydryl-oxazol-5-ylmethyl)-dimethyl-amine] | > 10 |
| C[N+](C)(CCCOc1ccccc1)Cc1cnc(C(c2ccccc2)c2ccccc2)o1 [Example 74, (2-Benzhydryl-oxazol-5-ylmeth-dimethyl-(3-phenoxy-propyl)-ammonium bromide] | > 10 |
| COC(c1ccccc1)(c1ccccc1)c1ncc(C[N+](C)(C)CCCOc2ccccc2)o1 [Example 76, [2-(Methoxy-diphenyl-methyl)-oxazol-5-ylmethyl]-dimethyl-(3-phenoxy-propyl)-ammonium bromide] | > 10 |
| CN(CCCCCCCCCNC[C@H](O)c1ccc(O)c2[nH]c(=O)ccc12)Cc1cnc(C(O)(c2ccccc2)C2CCCCC2)o1 (stereo partly drawn) [Example 77, 5-[(R)-2-(9-{[2-(Cyclohexyl-hydroxy-phenyl-methyl)-oxazol-5-ylmethyl]-methyl-amino}-nonylamino)-1-hydroxy-ethyl]-8-hydroxy-1H-quinolin-2-one] | > 10 |
| C[N+](C)(CCCOCc1ccccc1)Cc1cnc([C@](O)(c2ccccc2)C2CCCCC2)o1 [Example 80, (3-Benzyloxy-propyl)-[2-((R)-cyclohexyl-hydroxy-phenyl-methyl)-oxazol-5-ylmethyl]-dimethyl-ammonium bromide] | < 1 |
| C[N+](C)(CCOCc1ccc(Cl)cc1)Cc1cnc([C@](O)(c2ccccc2)C2CCCCC2)o1 [Example 81, [2-(4-Chloro-benzyloxy)-ethyl]-[2-((R)-cyclohexyl-hydroxy-phenyl-methyl)-oxazol-5-ylmethyl]-dimethyl-ammonium methanesulfonate] | < 1 |

Second part, the compound after the results:

| Ki [nM] | SMILES |
| --- | --- |
| < 1 | C[N+](C)(CCOc1ccccc1)Cc1cnc([C@](O)(c2ccccc2)C2CCCCC2)o1 [Example 49, [2-((R)-cyclohexyl-hydroxy-phenyl-methyl)-oxazol-5-ylmethyl]-dimethyl-(2-phenoxy-ethyl)-ammonium formate] |
| < 1 | Cc1ccc(OCCC[N+](C)(C)Cc2cnc([C@](O)(c3ccccc3)C3CCCCC3)o2)cc1 [Example 55, [2-((R)-Cyclohexyl-hydroxy-phenyl-methyl)-oxazol-5-ylmethyl]-dimethyl-(3-p-tolyloxy-propyl)-ammonium bromide] |
| < 1 | C[N+](C)(CCCOc1ccc(Cl)cc1)Cc1cnc([C@](O)(c2ccccc2)C2CCCCC2)o1 [Example 56, [3-(4-Chloro-phenoxy)-propyl]-[2-((R)-cyclohexyl-hydroxy-phenyl-methyl)-oxazol-5-ylmethyl]-dimethyl-ammonium bromide] |
| < 1 | C[N+](C)(CCCOc1ccc(Cl)c(Cl)c1)Cc1cnc([C@](O)(c2ccccc2)C2CCCCC2)o1 [Example 57, [2-((R)-Cyclohexyl-hydroxy-phenyl-methyl)-oxazol-5-ylmethyl]-[3-(3,4-dichloro-phenoxy)-propyl]-dimethyl-ammonium bromide] |
| < 1 | CNCCCCCCCC[N+](C)(C)Cc1cnc([C@](O)(c2ccccc2)C2CCCCC2)o1 [Example 61, [2-((R)-cyclohexyl-hydroxy-phenyl-methyl)-oxazol-5-ylmethyl]-dimethyl-(8-methylamino-octyl)-ammonium methanesulfonate hydrochloride salt] |
| < 1 | CNCc1ccc(CC[N+](C)(C)Cc2cnc([C@](O)(c3ccccc3)C3CCCCC3)o2)cc1 [Example 62, [2-((R)-cyclohexyl-hydroxy-phenyl-methyl)-oxazol-5-ylmethyl]-dimethyl-[2-(4-methylaminomethyl-phenyl)-ethyl]-ammonium methanesulfonate hydrochloride] |
| < 1 | C[N+](C)(CCCOc1ccccc1)CCc1cnc(C(O)(c2ccccc2)C2CCCCC2)o1 (stereo not drawn) [Example 65, {2-[2-(Cyclohexyl-hydroxy-phenyl-methyl)-oxazol-5-yl]-ethyl}-dimethyl-(3-phenoxy-propyl)-ammonium bromide] |
| < 1 | C[N+](C)(CCCOc1ccccc1)CCc1cnc(C(O)(c2ccccc2)c2ccccc2)o1 [Example 72, {2-[2-(Hydroxy-diphenyl-methyl)-oxazol-5-yl]-ethyl}-dimethyl-(3-phenoxy-propyl)-ammonium bromide] |
| < 1 | C[N+](C)(CCCOc1ccccc1)Cc1cnc(C(O)(c2ccccc2)c2ccccc2)s1 [Example 79, [2-(Hydroxydiphenylmethyl)thiazol-5-ylmethyl]dimethyl-(3-phenoxypropyl)ammonium bromide] |

Reference: patent publication US20100113540A1, “Azole and Thiazole Derivatives and Their Use” (ARGENTA DISCOVERY LIMITED, priority 2005, published 2010)
